Assay results from article PMC12507699, “SLC45A4 is a pain gene encoding a neuronal polyamine transporter” (Nature, 2025).

Columns and labels:
[1] = molecular target: T1, SLC45A4 (Homo sapiens, UniProt Q5BKX6); experiment: competition of […]-SPD uptake in Neuro-2A cells overexpressing SLC45A4; also nanoDSF on purified protein; assay type: cell-based; design: full-length human SLC45A4
T1 sequence (Q5BKX6 1-768): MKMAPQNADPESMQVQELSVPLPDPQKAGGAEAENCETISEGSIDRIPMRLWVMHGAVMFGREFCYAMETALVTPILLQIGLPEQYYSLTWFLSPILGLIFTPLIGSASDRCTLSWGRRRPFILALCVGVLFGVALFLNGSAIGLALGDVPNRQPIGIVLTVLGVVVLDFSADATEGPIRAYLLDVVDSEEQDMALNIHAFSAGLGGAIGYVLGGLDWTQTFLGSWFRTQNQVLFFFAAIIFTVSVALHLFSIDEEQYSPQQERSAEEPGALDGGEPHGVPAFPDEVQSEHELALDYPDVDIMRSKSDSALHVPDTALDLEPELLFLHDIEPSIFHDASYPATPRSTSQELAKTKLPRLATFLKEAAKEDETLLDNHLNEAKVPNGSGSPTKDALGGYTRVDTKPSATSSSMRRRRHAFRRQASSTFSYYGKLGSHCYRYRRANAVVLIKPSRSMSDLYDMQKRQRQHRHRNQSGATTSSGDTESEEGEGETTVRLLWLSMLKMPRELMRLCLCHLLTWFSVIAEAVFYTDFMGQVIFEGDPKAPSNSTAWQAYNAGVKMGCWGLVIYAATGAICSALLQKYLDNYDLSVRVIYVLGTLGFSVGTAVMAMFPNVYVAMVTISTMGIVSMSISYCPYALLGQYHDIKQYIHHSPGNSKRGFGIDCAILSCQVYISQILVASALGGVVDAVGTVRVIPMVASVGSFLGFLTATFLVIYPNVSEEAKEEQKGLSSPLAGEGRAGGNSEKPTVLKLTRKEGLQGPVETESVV

[2] = molecular target: T1, SLC45A4; experiment: […]-SPD uptake and homologous competition in Neuro-2A cells overexpressing SLC45A4; also nanoDSF destabilization of purified protein in detergent and nanodiscs; assay type: cell-based; design: full-length human SLC45A4
[3] = molecular target: T1, SLC45A4; experiment: cell-based

IC50 [1] | Structure (SMILES) | other results
67 µM | NCCCCCN [Cad, cadaverine] | –
74 µM | NCCCCN [Put, putrescine] | –
– | NCCCCNCCCN [SPD, spermidine] | IC50 [2]: 123 µM
– | NCCCNCCCCNCCCN [Spm, spermine] | IC50 [3]: 240 µM
